According to patent US7351728B2, “Oxazolyl-aryloxyacetic acid derivatives and their use as PPAR agonists” (Eli Lilly and Company, priority 2003, dated 2008):

How the values were obtained:
huPPARα = molecular target: T1, huPPARα (Homo sapiens, UniProt Q07869); experiment: DNA-dependent binding (ABCD binding), SPA, tritium-labeled PPARα agonist radioligand; details: displacement of tritium-labeled PPARα agonist
T1 sequence (Q07869 1-468): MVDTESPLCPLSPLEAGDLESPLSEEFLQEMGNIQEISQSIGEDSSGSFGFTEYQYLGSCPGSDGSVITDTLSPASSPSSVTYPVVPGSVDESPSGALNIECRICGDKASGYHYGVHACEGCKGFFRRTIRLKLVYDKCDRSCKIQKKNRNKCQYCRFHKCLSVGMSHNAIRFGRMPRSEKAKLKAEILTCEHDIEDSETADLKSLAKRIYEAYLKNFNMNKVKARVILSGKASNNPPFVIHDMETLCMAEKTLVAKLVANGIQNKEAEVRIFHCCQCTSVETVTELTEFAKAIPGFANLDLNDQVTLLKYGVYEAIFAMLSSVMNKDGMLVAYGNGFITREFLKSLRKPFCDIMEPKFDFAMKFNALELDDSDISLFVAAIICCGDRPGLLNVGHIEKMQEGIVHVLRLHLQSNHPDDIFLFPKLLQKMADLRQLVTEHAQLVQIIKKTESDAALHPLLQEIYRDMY
T1 sequence (P19793 1-462 partner): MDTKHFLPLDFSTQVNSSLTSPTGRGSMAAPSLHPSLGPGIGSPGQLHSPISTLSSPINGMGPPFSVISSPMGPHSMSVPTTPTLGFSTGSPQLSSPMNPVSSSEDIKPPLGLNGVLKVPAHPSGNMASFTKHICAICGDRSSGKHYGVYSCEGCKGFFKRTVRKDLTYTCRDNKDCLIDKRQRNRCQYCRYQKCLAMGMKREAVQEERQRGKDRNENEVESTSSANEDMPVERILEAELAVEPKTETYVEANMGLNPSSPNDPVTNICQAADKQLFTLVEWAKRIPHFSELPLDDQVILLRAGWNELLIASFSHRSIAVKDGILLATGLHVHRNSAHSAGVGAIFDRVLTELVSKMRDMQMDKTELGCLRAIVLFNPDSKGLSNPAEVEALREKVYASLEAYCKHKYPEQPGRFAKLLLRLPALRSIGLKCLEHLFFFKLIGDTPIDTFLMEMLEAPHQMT
Procedure: (§1) DNA-dependent binding (ABCD binding) was carried out using SPA technology with PPAR receptors. Tritium-labeled PPARα and PPARγ agonists were used as radioligands for generating displacement curves and IC50 values with compounds of the invention. Cotransfection assays were carried out in CV-1 cells. The reporter plasmid contained an acylCoA oxidase (AOX) PPRE and TK promoter upstream of the luciferase reporter cDNA. Appropriate PPARs and RXRα were constitutively expressed using plasmids containing the CMV promoter. […] In order to eliminate such interference, a GAL4 chimeric system was used in which the DNA binding domain of the transfected PPAR was replaced by that of GAL4, and the GAL4 response element was utilized in place of the AOX PPRE. Cotransfection efficacy was determined relative to PPARα agonist and PPARγ agonist reference molecules. Efficacies were determined by computer fit to a concentration-response curve, or in some cases at a single high concentration of agonist (10 μM). For binding or cotransfection studies with receptors other than PPARs, similar assays were carried out using appropriate ligands, receptors, reporter constructs, etc., for that particular receptor.
(§2) These studies were carried out to evaluate the ability of compounds of the invention to bind to and/or activate various nuclear transcription factors, particularly huPPARα (“hu” indicates “human”) and huPPARγ. These studies provide in vitro data concerning efficacy and selectivity of compounds of the invention. Furthermore, binding and cotransfection data for compounds of the invention were compared with corresponding data for marketed compounds that act on either huPPARα or huPPARγ.
(§3) Binding and cotransfection data for representative compounds of the invention are compared with corresponding data for reference compounds in Table II.

huPPARγ [1] = molecular target: T2, huPPARγ (Homo sapiens, UniProt P37231); experiment: DNA-dependent binding (ABCD binding), SPA, tritium-labeled PPARγ agonist radioligand; details: displacement of tritium-labeled PPARγ agonist
T2 sequence (P37231 1-505): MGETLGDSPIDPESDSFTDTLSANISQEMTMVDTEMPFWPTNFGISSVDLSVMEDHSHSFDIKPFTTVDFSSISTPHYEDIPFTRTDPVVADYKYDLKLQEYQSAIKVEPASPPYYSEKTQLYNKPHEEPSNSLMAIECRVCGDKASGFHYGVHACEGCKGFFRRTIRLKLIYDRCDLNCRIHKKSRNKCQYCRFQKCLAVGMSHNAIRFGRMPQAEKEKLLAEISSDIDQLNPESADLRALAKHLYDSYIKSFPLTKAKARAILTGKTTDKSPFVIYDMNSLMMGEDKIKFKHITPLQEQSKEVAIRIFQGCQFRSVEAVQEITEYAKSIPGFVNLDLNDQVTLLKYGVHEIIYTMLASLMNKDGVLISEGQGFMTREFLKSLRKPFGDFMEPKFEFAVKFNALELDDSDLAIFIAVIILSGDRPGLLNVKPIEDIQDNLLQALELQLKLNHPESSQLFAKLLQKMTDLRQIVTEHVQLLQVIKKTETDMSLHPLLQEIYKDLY
T2 sequence (P19793 1-462 partner): T1 sequence (P19793 1-462 partner)
Procedure: as §1, §2, §3

huPPARγ [2] = molecular target: T2, huPPARγ; experiment: Cotransfection assay in CV-1 cells, AOX PPRE luciferase reporter; assay type: cell-based; parameters: expressed in transfected cells; host or cells: CV-1 cells; details: cotransfection efficacy relative to PPARγ agonist reference molecule, read-out: huPPARγ CTF Eff. (%)
Procedure: as §1, §2, §3

Compound `Cc1oc(-c2ccccc2)nc1CCOc1ccc(OC(C)(C)C(=O)O)cc1` [Example 1, 2-Methyl-2-{4-[2-(5-methyl-2-phenyloxazol-4-yl)ethoxy]phenoxy}propionic acid] has an IC50 (huPPARα) of 1680 nM, an IC50 (huPPARγ [1]) of 2130 nM and an Emax (huPPARγ [2]) of 69%.

`Cc1oc(-c2ccccc2)nc1CCOc1ccc(OC(C)(C)C(=O)O)c2ccccc12` [Example 37, 2-Methyl-2-{4-[2-(5-methyl-2-phenyl-oxazol-4-yl)-ethoxy]-naphthalen-1-yloxy}-propionic acid] showed an IC50 (huPPARα) of 294 nM, an IC50 (huPPARγ [1]) of 172 nM and an Emax (huPPARγ [2]) of 60%.

Work on `CCCCc1cc(OC(C)(C)C(=O)O)ccc1OCCc1nc(-c2ccccc2)oc1C` [Example 31F, 2-{3-Butyl-4-[2-(5-methyl-2-phenyloxazol-4-yl)ethoxy]phenoxy}-2-methylpropionic acid] yielded an IC50 (huPPARα) of 30 nM, an IC50 (huPPARγ [1]) of 10 nM and an Emax (huPPARγ [2]) of 51%.

`Cc1oc(-c2ccccc2)nc1CCOc1ccc(OC(C)(C)C(=O)O)c2c1CCCC2` [Example 38, 2-Methyl-2-{4-[2-(5-methyl-2-phenyl-oxazol-4-yl)-ethoxy]-5,6,7,8-tetrahydro-naphthalen-1-yloxy}-propionic acid] was tested, and the IC50 (huPPARα) was 254 nM, the IC50 (huPPARγ [1]) was 81 nM and the Emax (huPPARγ [2]) was 65%.

In the case of `Cc1oc(-c2cccc(CCc3ccccc3)c2)nc1CCOc1ccc(OC(C)(C)C(=O)O)cc1` [Example 12A, 2-Methyl-2-(4-{2-[5-methyl-2-(3-phenethylphenyl)oxazol-4-yl]ethoxy}phenoxy)-propionic acid], the IC50 (huPPARα) is reported as 233 nM, the IC50 (huPPARγ [1]) is reported as 102 nM and the Emax (huPPARγ [2]) is reported as 170%.

Compound `Cc1oc(-c2cccc(Br)c2)nc1CCOc1ccc(OC(C)(C)C(=O)O)cc1` [Example 9A, 2-(4-{2-[2-(3-Bromophenyl)-5-methyloxazol-4-yl]ethoxy}phenoxy)-2-methylpropionic acid] has an IC50 (huPPARα) of 75 nM, an IC50 (huPPARγ [1]) of 180 nM and an Emax (huPPARγ [2]) of 60%.

Compound `Cc1oc(-c2ccccc2)nc1CCOc1ccc(OC(C)(C)C(=O)O)c(CCc2ccccc2)c1` [Example 30J, 2-Methyl-2-{4-[2-(5-methyl-2-phenyloxazol-4-yl)ethoxy]-2-phenethylphenoxy}propionic acid] has an IC50 (huPPARα) of 82 nM, an IC50 (huPPARγ [1]) of 83 nM and an Emax (huPPARγ [2]) of 50%.

In the case of `Cc1oc(-c2ccccc2)nc1CCOc1ccc(OC(C)(C)C(=O)O)c(Cc2ccccc2)c1` [Example 32, 2-{2-Benzyl-4-[2-(5-methyl-2-phenyloxazol-4-yl)ethoxy]phenoxy}-2-methylpropionic acid], the IC50 (huPPARα) is reported as 50 nM, the IC50 (huPPARγ [1]) is reported as 42 nM and the Emax (huPPARγ [2]) is reported as 80%.

`Cc1oc(-c2ccccc2)nc1CCOc1ccc(OC(C)(C)C(=O)O)c(CC(C)C)c1` [Example 30C, 2-{2-Isobutyl-4-[2-(5-methyl-2-phenyloxazol-4-yl)ethoxy]phenoxy}-2-methylpropionic acid] gave an IC50 (huPPARα) of 259 nM, an IC50 (huPPARγ [1]) of 148 nM and an Emax (huPPARγ [2]) of 63%.

With `CCCc1cc(OCCc2nc(-c3ccccc3)oc2C)ccc1OCC(=O)O` [Example 26, {4-[2-(5-methyl-2-phenyl-oxazol-4-yl)ethoxy]-2-propylphenoxy}acetic acid] the IC50 (huPPARα) was 3280 nM, the IC50 (huPPARγ [1]) was 1150 nM and the Emax (huPPARγ [2]) was 52%.

For `CCc1cc(OCCc2nc(-c3ccccc3)oc2C)ccc1OC(C)(C)C(=O)O` [Example 30A, 2-{2-Ethyl-4-[2-(5-methyl-2-phenyloxazol-4-yl)ethoxy]phenoxy}2-methylpropionic acid], the IC50 (huPPARα) was 189 nM, the IC50 (huPPARγ [1]) was 78 nM and the Emax (huPPARγ [2]) was 92%.

Compound `Cc1oc(-c2ccc(OC3CCCCC3)cc2)nc1CCOc1ccc(OC(C)(C)C(=O)O)cc1` [Example 21, 2-(4-{2-[2-(4-Cyclohexyloxy-phenyl)-5-methyl-oxazol-4-yl]-ethoxy}-phenoxy)-2-methyl-propionic acid] has an IC50 (huPPARα) of 401 nM, an IC50 (huPPARγ [1]) of 627 nM and an Emax (huPPARγ [2]) of 85%.

For `CCCc1cc(OCCc2nc(-c3ccccc3)oc2C)ccc1OC(C)(C)C(=O)O` [Example 26A, 2-Methyl-2-{4-[2-(5-methyl-2-phenyloxazol-4-yl)ethoxy]-2-propylphenoxy}propionic acid], the IC50 (huPPARα) was 79 nM, the IC50 (huPPARγ [1]) was 102 nM and the Emax (huPPARγ [2]) was 74%.

`CCc1ccc(-c2nc(CCOc3ccc(OC(C)(C)C(=O)O)cc3)c(C)o2)cc1` [Example 13, 2-(4-{2-[2-(4-Ethylphenyl)-5-methyloxazol-4-yl]ethoxy}phenoxy)-2-methylpropionic acid] was tested, and the IC50 (huPPARα) was 25 nM, the IC50 (huPPARγ [1]) was 420 nM and the Emax (huPPARγ [2]) was 109%.

Compound `CCc1cccc(-c2nc(CCOc3ccc(OC(C)(C)C(=O)O)cc3)c(C)o2)c1` [Example 12, 2-(4-{2-[2-(3-Ethylphenyl)-5-methyloxazol-4-yl]ethoxy}phenoxy)-2-methylpropionic acid] has an IC50 (huPPARα) of 31 nM, an IC50 (huPPARγ [1]) of 219 nM and an Emax (huPPARγ [2]) of 66%.

For `CCCc1cc(OC(C)(C)C(=O)O)ccc1OCCc1nc(-c2ccccc2)oc1C` [Example 27A, 2-Methyl-2-{4-[2-(5-methyl-2-phenyloxazol-4-yl)ethoxy]-3-propylphenoxy}propionic acid], the IC50 (huPPARα) was 113 nM, the IC50 (huPPARγ [1]) was 49 nM and the Emax (huPPARγ [2]) was 63%.

With `Cc1cc(OCCc2nc(-c3ccccc3)oc2C)ccc1OC(C)(C)C(=O)O` [Example 24, 2-Methyl-2-{2-methyl-4-[2-(5-methyl-2-phenyloxazol-4-yl)ethoxy]phenoxy}propionic acid] the IC50 (huPPARα) was 624 nM, the IC50 (huPPARγ [1]) was 239 nM and the Emax (huPPARγ [2]) was 94%.
